Where two headings read alike, the source gives them in different places.
Tested on: HEK293T cells
Format: cell-based
Method in brief: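 HEK293T and U2OS cells (DMEM) and MRC-9 fibroblasts (EMEM) exposed to compounds at 1 and 10 μM. Live-cell confocal imaging of cell shape and fluorescence before and at 12, 24 and 48 h. Normalized to 0.1% DMSO; biological duplicates with SEM.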

[1] = 1 µM, 0 h, HEK293T, biological replicate 1
[2] = 1 µM, 0 h, HEK293T, biological replicate 2
[3] = 1 µM, 12 h, HEK293T, biological replicate 1
[4] = 1 µM, 12 h, HEK293T, biological replicate 2
[5] = 1 µM, 24 h, HEK293T, biological replicate 1
[6] = 1 µM, 24 h, HEK293T, biological replicate 2
[7] = 1 µM, 48 h, HEK293T, biological replicate 1
[8] = 1 µM, 48 h, HEK293T, biological replicate 2
[9] = 10 µM, 0 h, HEK293T, biological replicate 1
[10] = 10 µM, 0 h, HEK293T, biological replicate 2
[11] = 10 µM, 12 h, HEK293T, biological replicate 1
[12] = 10 µM, 12 h, HEK293T, biological replicate 2
[13] = 10 µM, 24 h, HEK293T, biological replicate 1
[14] = 10 µM, 24 h, HEK293T, biological replicate 2
[15] = 10 µM, 48 h, HEK293T, biological replicate 1
[16] = 10 µM, 48 h, HEK293T, biological replicate 2

`CC(C)C(=O)Nc1ncc(-c2cc(C(F)F)nn2-c2c(Cl)cccc2Cl)s1` [LIMKi3] was tested, and the “Cell count normalized to cells treated with DMSO control” value (shortened to “Cell count normalized to cells treated”) [1] was 1.015, the “Cell count per well” value [1] was 303 and the “Population Fragmented Nuclei (%)” value [1] was 7.35%. The “Population Healthy Nuclei (%)” value [1] was 47.06%, the “Population Pyknosed Nuclei (%)” value [1] was 45.59% and the “Population apoptotic cell (%)” value [1] was 38.71%. For the same molecule, the “Population cell that influence microtubule strucutre (%)” value [1] was 19.53%, the “Population with increased mitochondrial mass (%)” value [1] was 60.16% and the “Population with membrane disruption (%)” value [1] was 0.00%. For the same molecule, the “Cell count normalized to cells treated” value [2] was 1.15, the “Cell count per well” value [2] was 263 and the “Population Fragmented Nuclei (%)” value [2] was 1.64%. The “Population Healthy Nuclei (%)” value [2] was 65.98%, the “Population Pyknosed Nuclei (%)” value [2] was 32.38% and the “Population apoptotic cell (%)” value [2] was 63.29%. For the same molecule, the “Population cell that influence microtubule strucutre (%)” value [2] was 26.71%, the “Population with increased mitochondrial mass (%)” value [2] was 85.09% and the “Population with membrane disruption (%)” value [2] was 0.00%. The “Cell count normalized to cells treated” value [3] was 0.9245, the “Cell count per well” value [3] was 421 and the “Population Fragmented Nuclei (%)” value [3] was 4.05%. The “Population Healthy Nuclei (%)” value [3] was 82.03%, the “Population Pyknosed Nuclei (%)” value [3] was 13.92% and the “Population apoptotic cell (%)” value [3] was 40.00%. For the same molecule, the “Population cell that influence microtubule strucutre (%)” value [3] was 44.44%, the “Population with increased mitochondrial mass (%)” value [3] was 48.77% and the “Population with membrane disruption (%)” value [3] was 0.62%. For the same molecule, the “Cell count normalized to cells treated” value [4] was 1.019, the “Cell count per well” value [4] was 357 and the “Population Fragmented Nuclei (%)” value [4] was 6.58%. For the same molecule, the “Population Healthy Nuclei (%)” value [4] was 83.39%, the “Population Pyknosed Nuclei (%)” value [4] was 10.03% and the “Population apoptotic cell (%)” value [4] was 53.13%. For the same molecule, the “Population cell that influence microtubule strucutre (%)” value [4] was 34.59%, the “Population with increased mitochondrial mass (%)” value [4] was 63.16% and the “Population with membrane disruption (%)” value [4] was 0.38%. For the same molecule, the “Cell count normalized to cells treated” value [5] was 0.9573, the “Cell count per well” value [5] was 581 and the “Population Fragmented Nuclei (%)” value [5] was 6.08%. The “Population Healthy Nuclei (%)” value [5] was 81.40%, the “Population Pyknosed Nuclei (%)” value [5] was 12.52% and the “Population apoptotic cell (%)” value [5] was 38.57%. For the same molecule, the “Population cell that influence microtubule strucutre (%)” value [5] was 25.27%, the “Population with increased mitochondrial mass (%)” value [5] was 30.55% and the “Population with membrane disruption (%)” value [5] was 1.32%. The “Cell count normalized to cells treated” value [6] was 1.028, the “Cell count per well” value [6] was 464 and the “Population Fragmented Nuclei (%)” value [6] was 11.83%. The “Population Healthy Nuclei (%)” value [6] was 78.42%, the “Population Pyknosed Nuclei (%)” value [6] was 9.74% and the “Population apoptotic cell (%)” value [6] was 30.95%. For the same molecule, the “Population cell that influence microtubule strucutre (%)” value [6] was 20.41%, the “Population with increased mitochondrial mass (%)” value [6] was 38.46% and the “Population with membrane disruption (%)” value [6] was 0.30%. For the same molecule, the “Cell count normalized to cells treated” value [7] was 0.8177, the “Cell count per well” value [7] was 827 and the “Population Fragmented Nuclei (%)” value [7] was 14.02%. The “Population Healthy Nuclei (%)” value [7] was 79.47%, the “Population Pyknosed Nuclei (%)” value [7] was 6.51% and the “Population apoptotic cell (%)” value [7] was 28.85%. For the same molecule, the “Population cell that influence microtubule strucutre (%)” value [7] was 17.17%, the “Population with increased mitochondrial mass (%)” value [7] was 22.36% and the “Population with membrane disruption (%)” value [7] was 1.10%. For the same molecule, the “Cell count normalized to cells treated” value [8] was 1.021, the “Cell count per well” value [8] was 697 and the “Population Fragmented Nuclei (%)” value [8] was 11.19%. For the same molecule, the “Population Healthy Nuclei (%)” value [8] was 83.72%, the “Population Pyknosed Nuclei (%)” value [8] was 5.09% and the “Population apoptotic cell (%)” value [8] was 14.29%. For the same molecule, the “Population cell that influence microtubule strucutre (%)” value [8] was 14.58%, the “Population with increased mitochondrial mass (%)” value [8] was 22.05% and the “Population with membrane disruption (%)” value [8] was 0.69%. The “Cell count normalized to cells treated” value [9] was 1.049, the “Cell count per well” value [9] was 313 and the “Population Fragmented Nuclei (%)” value [9] was 6.13%. The “Population Healthy Nuclei (%)” value [9] was 53.26%, the “Population Pyknosed Nuclei (%)” value [9] was 40.61% and the “Population apoptotic cell (%)” value [9] was 42.45%. The “Population cell that influence microtubule strucutre (%)” value [9] was 17.27%, the “Population with increased mitochondrial mass (%)” value [9] was 58.99% and the “Population with membrane disruption (%)” value [9] was 0.00%. For the same molecule, the “Cell count normalized to cells treated” value [10] was 1.189, the “Cell count per well” value [10] was 272 and the “Population Fragmented Nuclei (%)” value [10] was 5.14%. The “Population Healthy Nuclei (%)” value [10] was 69.17%, the “Population Pyknosed Nuclei (%)” value [10] was 25.69% and the “Population apoptotic cell (%)” value [10] was 58.46%. The “Population cell that influence microtubule strucutre (%)” value [10] was 23.43%, the “Population with increased mitochondrial mass (%)” value [10] was 84.57% and the “Population with membrane disruption (%)” value [10] was 0.00%. For the same molecule, the “Cell count normalized to cells treated” value [11] was 0.8125, the “Cell count per well” value [11] was 370 and the “Population Fragmented Nuclei (%)” value [11] was 7.52%. For the same molecule, the “Population Healthy Nuclei (%)” value [11] was 78.06%, the “Population Pyknosed Nuclei (%)” value [11] was 14.42% and the “Population apoptotic cell (%)” value [11] was 54.35%. The “Population cell that influence microtubule strucutre (%)” value [11] was 58.63%, the “Population with increased mitochondrial mass (%)” value [11] was 84.34% and the “Population with membrane disruption (%)” value [11] was 0.80%. For the same molecule, the “Cell count normalized to cells treated” value [12] was 1.053, the “Cell count per well” value [12] was 369 and the “Population Fragmented Nuclei (%)” value [12] was 5.29%. For the same molecule, the “Population Healthy Nuclei (%)” value [12] was 71.47%, the “Population Pyknosed Nuclei (%)” value [12] was 23.24% and the “Population apoptotic cell (%)” value [12] was 41.77%. The “Population cell that influence microtubule strucutre (%)” value [12] was 57.61%, the “Population with increased mitochondrial mass (%)” value [12] was 88.89% and the “Population with membrane disruption (%)” value [12] was 1.23%. The “Cell count normalized to cells treated” value [13] was 0.6376, the “Cell count per well” value [13] was 387 and the “Population Fragmented Nuclei (%)” value [13] was 7.23%. The “Population Healthy Nuclei (%)” value [13] was 75.14%, the “Population Pyknosed Nuclei (%)” value [13] was 17.63% and the “Population apoptotic cell (%)” value [13] was 40.98%. The “Population cell that influence microtubule strucutre (%)” value [13] was 62.69%, the “Population with increased mitochondrial mass (%)” value [13] was 85.38% and the “Population with membrane disruption (%)” value [13] was 0.38%. For the same molecule, the “Cell count normalized to cells treated” value [14] was 0.8682, the “Cell count per well” value [14] was 392 and the “Population Fragmented Nuclei (%)” value [14] was 3.68%. For the same molecule, the “Population Healthy Nuclei (%)” value [14] was 77.34%, the “Population Pyknosed Nuclei (%)” value [14] was 18.98% and the “Population apoptotic cell (%)” value [14] was 47.76%. The “Population cell that influence microtubule strucutre (%)” value [14] was 63.74%, the “Population with increased mitochondrial mass (%)” value [14] was 83.88% and the “Population with membrane disruption (%)” value [14] was 0.73%. The “Cell count normalized to cells treated” value [15] was 0.5082, the “Cell count per well” value [15] was 514 and the “Population Fragmented Nuclei (%)” value [15] was 8.84%. The “Population Healthy Nuclei (%)” value [15] was 75.22%, the “Population Pyknosed Nuclei (%)” value [15] was 15.95% and the “Population apoptotic cell (%)” value [15] was 52.70%. For the same molecule, the “Population cell that influence microtubule strucutre (%)” value [15] was 69.63%, the “Population with increased mitochondrial mass (%)” value [15] was 76.50% and the “Population with membrane disruption (%)” value [15] was 0.29%. For the same molecule, the “Cell count normalized to cells treated” value [16] was 0.7148, the “Cell count per well” value [16] was 488 and the “Population Fragmented Nuclei (%)” value [16] was 9.82%. The “Population Healthy Nuclei (%)” value [16] was 75.45%, the “Population Pyknosed Nuclei (%)” value [16] was 14.73% and the “Population apoptotic cell (%)” value [16] was 34.85%. For the same molecule, the “Population cell that influence microtubule strucutre (%)” value [16] was 65.68%, the “Population with increased mitochondrial mass (%)” value [16] was 74.26% and the “Population with membrane disruption (%)” value [16] was 1.78%.
For `CN1C(=O)[C@@H](N2CCc3c(C(N)=O)nn(Cc4ccccc4)c3C2=O)COc2ccccc21` [Compound 11], the “Population with membrane disruption (%)” value (human, 0 h, 10 µM) was 0.00%, the “Population with membrane disruption (%)” value (human, 12 h, 10 µM) was 0.00% and the “Population with membrane disruption (%)” value (human, 24 h, 10 µM) was 0.00%.

— PMC12090182, “Repurposing of the RIPK1-Selective Benzo[1,4]oxazepin-4-one Scaffold for the Development of a Type III LIMK1/2 Inhibitor” (ACS Chemical Biology, 2025)
